Data from PubChem BioAssay AID1159559 (GlaxoSmithKline (GSK), 2015).
Activity calls are given as the source filed them.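 How the source made its calls: active means compounds whose IC50 against parasite growth in infected mouse cells is below 50000 nM; inactive means the rest.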

Tested on: T. cruzi Tulahuen in NIH-3T3, beta-gal fluorescence, 4 d
Assay: T. cruzi intracellular growth inhibition, cell-based (AID 1159559)

SMILES	IC50
COc1ccc(-c2cnc(NC(=O)c3cc(-c4ccccn4)n[nH]3)n2C)cc1	3.2 µM
Cn1ccnc1-c1nc(NCc2ccccc2Cl)cc(C2CC2)n1	0.63 µM
O=S(=O)(NCC(c1cccnc1)N1CCN(c2ccccc2F)CC1)c1ccc(F)cc1 (centres undefined)	0.5 µM
CCCCCNC(=O)c1c[nH]c2ccc(S(=O)(=O)N(C)c3ccc(OCC)cc3)cc2c1=O	32 µM
Cn1nccc1-c1cc(OC(CN)c2ccccc2)cnc1-c1ccco1 (centres undefined)	0.4 µM
CCc1nn(-c2ncc(F)c(NC(C)C)n2)c(N)c1C1CCCCC1	3.2 µM
N#Cc1ccc(S(=O)(=O)N2CCN(Cc3cccc(-c4ccncc4)c3)CC2)cc1	0.4 µM
COc1cc(-c2nc(N3CCOCC3)sc2-c2ccnc(NC3CCOCC3)n2)ccc1Cl	0.25 µM
C[C@@H](Oc1cc(-n2cnc3cc(N)ccc32)sc1C(N)=O)c1ccccc1Cl	1.3 µM
COc1ccccc1C=CCN1C[C@H]2CCC[C@@H](C1)C2(O)c1cccnc1 (some centres undefined)	0.05 µM
O=S1N=C(NCCCN(Cc2ccc(F)cc2)c2ccccn2)C(NCc2ccncc2)=N1 (centres undefined)	32 µM
Nc1nccc(-c2csc(Nc3ccc(Cl)cc3)n2)n1	1.3 µM
CNC(=O)C1Cc2ccccc2N1C(=O)Cc1ccc(F)cc1 (centres undefined)	> 50 µM (inactive)
O=C(Nc1ccc(C(F)(F)F)cc1)NC1(C(=O)NCc2ccco2)CCCCC1	7.9 µM
COCCn1c(-c2ccc3c(c2)OCO3)cnc1NCc1ccccc1OC	7.9 µM
CCC1Oc2cc(S(=O)(=O)N(C)CC(=O)N3CCc4ccccc4C3)c(C)cc2NC1=O (centres undefined)	0.2 µM
c1cncc(CN(Cc2ccco2)Cc2cn[nH]c2-c2cccs2)c1	0.02 µM
Cc1nc(-c2ccncc2)ncc1C(C)NC(=O)c1ccc(Cl)s1 (centres undefined)	25 µM
O=[N+]([O-])c1ccc(C2=CC(c3ccccc3)=NCCN2)cc1	0.5 µM
Cc1nc(C(=O)Nc2ccc3c(c2)OCO3)nn1-c1ccc(F)cc1	3.2 µM
COc1ccc(C2CC(c3ccccc3Cl)=NN2C(=O)CNC(=O)C2CCC2)cc1 (centres undefined)	2.5 µM
N#Cc1cccc(Nc2nccc(N3CCC(NS(=O)(=O)c4cccc(C#N)c4)CC3)n2)c1	1.6 µM
COc1ccc(NS(=O)(=O)c2cc(-c3cc(C)[nH]n3)ccc2C)cc1OC	1.3 µM
CC1CN(S(=O)(=O)c2ccc(NC(=O)c3cc(C4CC4)nc4c3cnn4C(C)C)cc2)CC(C)O1 (centres undefined)	0.63 µM

SMILES	IC50
O=c1[nH]c(NCCCNCc2cc(Br)cc(Br)c2)nc2ccsc12	0.63 µM
CS(=O)(=O)c1cccc(-c2cnc(N)c3c(-c4ccc(CO)cc4)csc23)c1	0.79 µM
Cc1cc(Br)cc(C(=O)c2c(C(C)C)c(=O)[nH]c(=O)n2Cc2ccnc(N)c2)c1	0.4 µM
COc1ccc(-c2cnc(NC(=O)c3ccc(F)cc3)n2C)cc1	2.5 µM
Cc1nn(-c2nc(N)nc(-c3ccccn3)n2)c(C)c1Cc1ccccc1	2.5 µM
COc1cc(OC)cc(C(=O)N[C@@H](CC(C)C)C(=O)NC2(C#N)CC2)c1	> 50 µM (inactive)
O=C(c1cccc(Cl)c1Cl)N1CCn2c1nc(-c1ccncc1)cc2=O	0.16 µM
Cc1cc(-c2cccc3ccccc23)nc2nc(N)nc(N)c12	40 µM
N#Cc1cccc(CN2CCC(N(Cc3cccnc3)C(=O)c3cc(F)c(F)cc3F)CC2)c1	0.4 µM
O=C(NCCNc1noc(-c2ccc([N+](=O)[O-])cc2)n1)c1ccc(Cl)cc1	2 µM
COc1ccc2ncc(F)c(NC(=O)C3(O)CCC(NCc4ccc5c(c4)OCCO5)CC3)c2n1 (centres undefined)	0.16 µM
O=C(CSc1nnc2ccc(-c3ccc(F)cc3)nn12)N1CCCCC1	2.5 µM
N#Cc1nc(C=Cc2ccccc2)oc1NCc1cccnc1	0.25 µM
O=c1ccc2ccc(F)c3c2n1C[C@H]3CN1CCN(CC(O)c2cc3c(cn2)OCS3)CC1 (some centres undefined)	0.63 µM
COc1ccc(C2CC(c3ccccc3Cl)=NN2C(=O)CNC(=O)C2CCCC2)cc1 (centres undefined)	3.2 µM
O=[N+]([O-])c1ccc(-c2nnn(-c3cccnc3)n2)o1	0.25 µM
COc1ccc(S(=O)(=O)Nc2ccc(CN3CCN(C(=O)c4cccc(C#N)c4)CC3)cc2)cc1	1 µM
COCCn1cnc2cc(NC(=O)C3CCCCC3)cc(C(=O)N3CCc4sccc4C3)c21	20 µM
c1ccc(-c2nc(NC3CCCC3)c3ccccc3n2)nc1	2 µM
O=C(NCCc1ccn(-c2ccccc2)n1)C1CCCCC1	1.3 µM
O=C(COc1nn(-c2ccccc2)c2ncccc12)NCc1ccccc1	13 µM
Cc1ccc(NC(=O)c2ccnc(N3CCCC3)c2)cc1-c1cc(C(N)=O)ccc1C	6.3 µM
O=C(c1cc2cc(Cl)ccc2[nH]1)N1CCCCC1c1cccnc1 (centres undefined)	0.25 µM
O=C(Nc1ccc(S(=O)(=O)N2CCCC2)cc1)c1ccc([N+](=O)[O-])s1	0.2 µM

SMILES	IC50
Cc1nc(C(=O)Nc2ccc3c(c2)OCO3)nn1-c1ccc(Cl)cc1	6.3 µM
O=c1cc(NCCCNCc2c[nH]c3ccc(Br)cc23)[nH]c2ccccc12	> 50 µM (inactive)
Cc1cc(Nc2cc(C3CC3)[nH]n2)nc(N2CCCC2)n1	0.079 µM
CNc1nc(C)nc(N2CCc3cc(C(=O)NCc4ccc(-c5nccn5C)cc4Cl)ccc32)n1	5 µM
O=C1NCc2cccc(Nc3nc(NC4CCC(O)CC4)ncc3Br)c21 (centres undefined)	0.63 µM
NS(=O)(=O)c1ccc(Nc2nccc(-c3cnn4ncccc34)n2)cc1	2.5 µM
O=C(Nc1cccc(Cl)c1)N1CCCCC1c1cccnc1 (centres undefined)	0.16 µM
Cc1cc(C)n(-c2nc(NC(C)C)nc(NC(C)(C)C)n2)n1	2 µM
COc1cc(-c2noc(CC#N)n2)ccc1OC(F)F	40 µM
COc1ccc(S(=O)(=O)Nc2ccc(C(=O)Nc3nc(-c4ccccn4)cs3)cc2)cc1	0.79 µM
CC(C)(C)c1cc(NC2CC2)nc(-c2ccccn2)n1	1.3 µM
CC(C(=O)Nc1ccc(Br)cc1)N1CCN(c2ccc([N+](=O)[O-])cc2)CC1 (centres undefined)	2.5 µM
CCOc1cc(NCCCN2CCN(C)CC2)c2ncccc2c1	1.6 µM
COCCn1c(-c2ccccc2)cnc1NCc1ccccc1OC	13 µM
O=C(CN(Cc1ccccn1)Cc1ccccn1)NCc1ccc2c(c1)OCO2	7.9 µM
Cc1cc(Nc2ccc(C#N)c(Cl)c2C)n[nH]1	25 µM
COc1cc(C2SCC(=O)Nc3c2c(C)nn3-c2nc3ccccc3s2)cc(OC)c1O (centres undefined)	> 50 µM (inactive)
CN(C(=O)Nc1ccc2c(c1)CCN(C1CCC1)CC2)c1ccc(C#N)cc1	2 µM
Cc1nc(N2CC(C)OC(C)C2)sc1C(=O)Nc1ccc2c(c1)OCO2 (centres undefined)	2 µM
Clc1ccc(C(CC2CCCCO2)Cn2cncn2)c(Cl)c1 (centres undefined)	0.4 µM
Nc1ncnc2c1ncn2[C@@H]1O[C@H](CO)C[C@H]1O	1 µM
CCN(CC)S(=O)(=O)c1ccc(OC)c(NC(=O)c2ccc([N+](=O)[O-])s2)c1	0.25 µM
c1ccc(Nc2nc(-c3ccccn3)cc(N3CCOCC3)n2)cc1	2 µM
Cc1cc2nc(N3CC[C@H]3C(N)=O)nc(Nc3cc(C4CC4)[nH]n3)c2s1	6.3 µM

SMILES	IC50
Cc1nc(-c2nc(NCc3ccc(Cl)cc3)c3cccnc3c2O)n[nH]1	0.63 µM
CCOc1cnn(C)c(=O)c1Nc1ccc(C(=O)NCc2ccc(F)cc2)cc1	0.25 µM
O=c1ccc2ccc(F)c3c2n1C[C@H]3CN1CCC(NCc2cc3ccccc3o2)CC1	0.4 µM
CC(C)C[C@H](NC(=O)c1ccc(-c2ccccc2)o1)C(=O)NC1(C#N)CC1	32 µM
COc1ccc(Cc2nc(-c3ncc4cccnc4c3O)n[nH]2)cc1OC	1.3 µM
C[C@@H](Oc1cc(-n2cnc3ccc(CC(O)CO)cc32)sc1C(N)=O)c1ccccc1Cl (some centres undefined)	3.2 µM
COc1ccc(C(C)(C)C)cc1S(=O)(=O)n1ccnc1	0.13 µM
CNc1cncc(C2CCCN2C(=O)Cc2coc3cc(C)ccc23)n1 (centres undefined)	0.16 µM
C=CCn1nc([N+](=O)[O-])nc1Oc1ccc(Cl)cc1Cl	0.25 µM
Cc1c(C(=O)NCCCCn2ccnc2)oc2c(C)cccc12	0.2 µM
Clc1cc(Br)ccc1OCCCCn1ccnc1	0.63 µM
O=C(NCCc1ccccc1Cl)c1cccn1-c1cccnc1	0.4 µM
CN(Cc1ccc(F)cc1)c1ccc(OCC(=O)N2CCCCC2c2cccnc2)nn1 (centres undefined)	0.32 µM
Cc1ccc(-c2csc(NC(=O)C=Cc3ccc(S(=O)(=O)N4CCOCC4)cc3)n2)o1	7.9 µM
O=C(CCCn1cnc([N+](=O)[O-])n1)Nc1cccc(Cl)c1	0.2 µM
O=C(Nc1ccc(Br)cn1)c1ccc(Cn2cnc([N+](=O)[O-])n2)cc1	0.16 µM
CC(C)C[C@H](NC(=O)c1csc(-c2cccs2)n1)C(=O)NC1(C#N)CC1	25 µM
NCC(Cc1ccccc1)NC(=O)c1cnc(-c2c[nH]c3ncccc23)s1 (centres undefined)	2 µM
Cc1cnc(Nc2cc(Cc3ccccc3)nc(NC3CCC(O)CC3)n2)s1 (centres undefined)	0.13 µM
c1ccc2[nH]c(-c3ccc(N4CCCC4)nc3)nc2c1	1 µM
CCN(CC)S(=O)(=O)c1ccc(C(=O)Nc2cc(C)nn2-c2nc(C)c(C)c(=O)[nH]2)cc1	0.63 µM
O=C1CCCCCC1(Cc1cnc[nH]1)c1ccc(Cl)cc1Cl (centres undefined)	0.25 µM
